# System: primary rat mixed cortical cells
# Assay: In vitro myelination assay (MBP positive myelin strands, fold myelin pixels above background)
# Format: cell-based
# Settings: Rattus norvegicus, read-out: Fold myelin pixels above background relative to baseline of no added compound; for fold induction at 1 µM: 1.0 μM compound; for fold induction at 10 µM: 10.0 μM compound
# In short: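 Fourteen-day treatment of primary P1 rat mixed cortical cultures, re-dosed at days 6 and 10, at 1.0 μM and 10.0 μM. MBP immunofluorescence was imaged at 10× and myelin strands quantified by software, normalised to untreated wells as fold above background.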
SMILES,fold induction at 1 µM,fold induction at 10 µM
"Cc1cc(Nc2ncn(-c3cc(F)cc(F)c3)n2)cc(N2CCCC2CN2CCOCC2)c1 (stereo not shown) [Compound 1012, 1-(3,5-difluorophenyl)-N-[3-methyl-5-[2-(morpholinomethyl)pyrrolidin-1-yl]phenyl]-1,2,4-triazol-3-amine]",1 to 10,≤ 1
"Cc1cc(Nc2ncn(-c3cc(F)cc(F)c3)n2)cc(NC2CCN(C3CCOCC3)CC2)c1 [Compound 1013, N3-[1-(3,5-difluorophenyl)-1,2,4-triazol-3-yl]-5-methyl-N1-(1-tetrahydropyran-4-yl-4-piperidyl)benzene-1,3-diamine]",10 to 100,≤ 1
"Cc1cc(Nc2ncn(-c3cc(F)cc(F)c3)n2)cc(N2CCC(OC3CCOC3)CC2)c1 (stereo not shown) [Compound 1014, 1-(3,5-difluorophenyl)-N-[3-methyl-5-(4-tetrahydrofuran-3-yloxy-1-piperidyl)phenyl]-1,2,4-triazol-3-amine]",1 to 10,1 to 10
"Cc1cc(Nc2ncn(-c3cc(F)cc(F)c3)n2)cc(N2CCC(N(C)CCO)CC2)c1 [Compound 1015, 2-[[1-[3-[[1-(3,5-difluorophenyl)-1,2,4-triazol-3-yl]amino]-5-methyl-phenyl]-4-piperidyl]-methyl-amino]ethanol]",≤ 1,≤ 1
"Cc1cc(NC2(C)COC2)cc(Nc2ncn(-c3cc(F)cc(F)c3)n2)c1F [Compound 1016, N3-[1-(3,5-difluorophenyl)-1,2,4-triazol-3-yl]-4-fluoro-5-methyl-N1-(3-methyloxetan-3-yl)benzene-1,3-diamine]",10 to 100,1 to 10
"CCN(CC)CC1CN(c2cc(C)cc(Nc3ncn(-c4cc(F)cc(F)c4)n3)c2)CCO1 (stereo not shown) [Compound 1017, N-[3-[2-(diethylaminomethyl)morpholin-4-yl]-5-methyl-phenyl]-1-(3,5-difluorophenyl)-1,2,4-triazol-3-amine]",10 to 100,≤ 1
"Cc1cc(Nc2ncn(-c3cc(F)cc(F)c3)n2)cc(N2CCOC(CN(C)C)C2)c1 (stereo not shown) [Compound 1018, 1-(3,5-difluorophenyl)-N-[3-[2-[(dimethylamino)methyl]morpholin-4-yl]-5-methyl-phenyl]-1,2,4-triazol-3-amine]",10 to 100,≤ 1
"Cc1cc(Nc2ncn(-c3cc(F)cc(F)c3)n2)cc(N2CCC(OC(C)C)CC2)c1 [Compound 1019, 1-(3,5-difluorophenyl)-N-[3-(4-isopropoxy-1-piperidyl)-5-methyl-phenyl]-1,2,4-triazol-3-amine]",1 to 10,10 to 100
"Cc1cc(NCC2(N3CCCC3)COC2)cc(Nc2ncn(-c3cc(F)cc(F)c3)n2)c1 [Compound 1020, N1-[1-(3,5-difluorophenyl)-1,2,4-triazol-3-yl]-5-methyl-N3-[(3-pyrrolidin-1-yloxetan-3-yl)methyl]benzene-1,3-diamine]",10 to 100,1 to 10
"Cc1cc(NC2CCOCC2)cc(Nc2ncn(-c3cc(F)cc(F)c3)n2)c1F [Compound 1021, N3-[1-(3,5-difluorophenyl)-1,2,4-triazol-3-yl]-4-fluoro-5-methyl-N1-tetrahydropyran-4-yl-benzene-1,3-diamine]",1 to 10,≤ 1
"Cc1cc(Nc2ncn(-c3cccnc3)n2)c(F)c(N2CCN(C3COC3)CC2)c1 [Compound 1022, N-[2-fluoro-5-methyl-3-[4-(oxetan-3-yl)piperazin-1-yl]phenyl]-1-(3-pyridyl)-1,2,4-triazol-3-amine]",1 to 10,10 to 100
"Cc1cc(Nc2ncn(-c3cc(F)cc(F)c3)n2)cc(N2CCC(N3CCOC(C)C3)CC2)c1 (stereo not shown) [Compound 1023, 1-(3,5-difluorophenyl)-N-[3-methyl-5-[4-(2-methylmorpholin-4-yl)-1-piperidyl]phenyl]-1,2,4-triazol-3-amine]",1 to 10,10 to 100
"Cc1cc(Nc2ncn(-c3cc(F)cc(F)c3)n2)cc(N2CCN(CC(C)(C)O)CC2C)c1 (stereo not shown) [Compound 1024, 1-[4-[3-[[1-(3,5-difluorophenyl)-1,2,4-triazol-3-yl]amino]-5-methyl-phenyl]-3-methyl-piperazin-1-yl]-2-methyl-propan-2-ol]",10 to 100,≤ 1
"CCN1CCN(C2CCN(c3cc(C)cc(Nc4ncn(-c5cc(F)cc(F)c5)n4)c3)CC2)CC1 [Compound 1025, 1-(3,5-difluorophenyl)-N-[3-[4-(4-ethylpiperazin-1-yl)-1-piperidyl]-5-methyl-phenyl]-1,2,4-triazol-3-amine]",1 to 10,10 to 100
"Cc1cc(Nc2ncn(-c3cc(F)cc(F)c3)n2)cc(N2CCN(C)C(CCO)C2)c1 (stereo not shown) [Compound 1026, 2-[4-[3-[[1-(3,5-difluorophenyl)-1,2,4-triazol-3-yl]amino]-5-methyl-phenyl]-1-methyl-piperazin-2-yl]ethanol]",1 to 10,1 to 10
"Cc1cc(Nc2ncn(-c3cc(F)cc(F)c3)n2)cc(N2CCOC(CN3CCCC3)C2)c1 (stereo not shown) [Compound 1027, 1-(3,5-difluorophenyl)-N-[3-methyl-5-[2-(pyrrolidin-1-ylmethyl)morpholin-4-yl]phenyl]-1,2,4-triazol-3-amine]",1 to 10,≤ 1
"COC1(CNc2cc(C)cc(Nc3ncn(-c4cc(F)cc(F)c4)n3)c2)CCC1 [Compound 1029, N1-[1-(3,5-difluorophenyl)-1,2,4-triazol-3-yl]-N3-[(1-methoxycyclobutyl)methyl]-5-methyl-benzene-1,3-diamine]",10 to 100,10 to 100
"COCCC1CN(c2cc(C)cc(Nc3ncn(-c4cc(F)cc(F)c4)n3)c2)CCO1 (stereo not shown) [Compound 1030, 1-(3,5-difluorophenyl)-N-[3-[2-(2-methoxyethyl)morpholin-4-yl]-5-methyl-phenyl]-1,2,4-triazol-3-amine]",10 to 100,1 to 10
"CC(=O)N1CC(CNc2cc(C)cc(Nc3ncn(-c4cc(F)cc(F)c4)n3)c2)C1 [Compound 1031, 1-[3-[[3-[[1-(3,5-difluorophenyl)-1,2,4-triazol-3-yl]amino]-5-methyl-anilino]methyl]azetidin-1-yl]ethanone]",10 to 100,≤ 1
"[2H]C1([2H])N(c2cc(Nc3ncn(-c4cc(F)cc(F)c4)n3)cc(C(F)(F)F)c2)C([2H])([2H])C([2H])([2H])C([2H])([2H])C1([2H])[2H] [Compound 1032, N-[3-(2,2,3,3,4,4,5,5,6,6-decadeuterio-1-piperidyl)-5-(trifluoromethyl)phenyl]-1-(3,5-difluorophenyl)-1,2,4-triazol-3-amine]",10 to 100,1 to 10
"Cc1cc(Nc2ncn(-c3cc(F)cc(F)c3)n2)cc(N2CCN(CCOCCO)CC2)c1 [Compound 1033, 2-[2-[4-[3-[[1-(3,5-difluorophenyl)-1,2,4-triazol-3-yl]amino]-5-methyl-phenyl]piperazin-1-yl]ethoxy]ethanol]",1 to 10,≤ 1
"Cc1cc(Nc2ncn(-c3ccccc3)n2)cc(N2CC3(C2)CN(C(C)C)C3)c1 [Compound 1034, N-[3-(2-isopropyl-2,6-diazaspiro[3.3]heptan-6-yl)-5-methyl-phenyl]-1-phenyl-1,2,4-triazol-3-amine]",10 to 100,≤ 1
"Cc1cc(Nc2ncn(-c3cc(F)cc(F)c3)n2)cc(N2CCOC3(CC3)C2)c1 [Compound 1035, 1-(3,5-difluorophenyl)-N-[3-methyl-5-(4-oxa-7-azaspiro[2.5]octan-7-yl)phenyl]-1,2,4-triazol-3-amine]",1 to 10,1 to 10
"Cc1cc(Nc2ncn(-c3cc(F)cc(F)c3)n2)cc(N2CCN(CCO)CC2)c1 [Compound 1036, 2-[4-[3-[[1-(3,5-difluorophenyl)-1,2,4-triazol-3-yl]amino]-5-methyl-phenyl]piperazin-1-yl]ethanol]",≤ 1,≤ 1
"Cc1cc(Nc2ncn(-c3cc(F)cc(F)c3)n2)cc(N2CC(S(C)(=O)=O)C2)c1 [Compound 1037, 1-(3,5-difluorophenyl)-N-[3-methyl-5-(3-methylsulfonylazetidin-1-yl)phenyl]-1,2,4-triazol-3-amine]",10 to 100,≤ 1
"Cc1cc(Nc2ncn(-c3cc(F)cc(F)c3)n2)cc(N2CCC(N3CCCC3)CC2)c1 [Compound 1038, 1-(3,5-difluorophenyl)-N-[3-methyl-5-(4-pyrrolidin-1-yl-1-piperidyl)phenyl]-1,2,4-triazol-3-amine]",1 to 10,10 to 100
"[2H]C1(N2CCN(c3cc(C)cc(Nc4ncn(-c5ccccc5)n4)c3)CC2)CCOC1 (stereo not shown) [Compound 1039, N-[3-[4-(3-deuteriotetrahydrofuran-3-yl)piperazin-1-yl]-5-methyl-phenyl]-1-phenyl-1,2,4-triazol-3-amine]",10 to 100,≤ 1
"Cc1cc(Nc2ncn(-c3cc(F)cc(F)c3)n2)cc(N2CCC(N3CCC(O)C3)C2)c1 (stereo not shown) [Compound 1040, 1-[1-[3-[[1-(3,5-difluorophenyl)-1,2,4-triazol-3-yl]amino]-5-methyl-phenyl]pyrrolidin-3-yl]pyrrolidin-3-ol]",10 to 100,≤ 1
"[2H]C1([2H])N(C(=O)C2CC2)C([2H])([2H])C([2H])([2H])N(c2cc(Nc3ncn(-c4cc(F)cc(F)c4)n3)cc(C(F)F)c2)C1([2H])[2H] [Compound 1041, cyclopropyl-[2,2,3,3,5,5,6,6-octadeuterio-4-[3-(difluoromethyl)-5-[[1-(3,5-difluorophenyl)-1,2,4-triazol-3-yl]amino]phenyl]piperazin-1-yl]methanone]",1 to 10,1 to 10

# From patent publication US10766869B2, “Triazoles for the treatment of demyelinating dieases” (Vertex Pharmaceuticals Incorporated, priority 2015, dated 2020)
